Data on eight compounds can be found in US7851501B2, “Aromatic nitrocatechol compounds and their use for modulating processes mediated by cell adhesion molecules” (Revotar Biopharmaceuticals AG, priority 2005, dated 2010).

Test [1] concerns the target T1, human E-Selectin-IgG-chimera (Homo sapiens, UniProt P16581). Put plainly: Flow chamber assay, cell adhesion and rolling under flow conditions, E-selectin. Format: cell-based. To be noted: 125 μM compound; HL-60 cells; flow shear 1 dyne/cm^2; after 5 minutes continuous flow. The protocol: (§1) Values are given as normalized ratios of %-inhibition of compound x divided by %-inhibition of bimosiamose.
(§2) Flow Chamber Assay/Cell Adhesion and Rolling Under Flow Conditions
(§3) To assess the capability of compounds to inhibit cell binding under dynamic conditions resembling the flow in a blood vessel, flow chamber assays addressing/testing binding of HL-60 cells/various cell lines to P-selectin, L-selectin and E-selectin chimeric molecules are performed.
(§4) Cell attachment under flow conditions are determined using a parallel flow chamber system. A 35 mm polystyrene culture dish is coated for 1 hour at room temperature with coating buffer (50 mM tris-(hydroxymethyl)aminomethane buffer (Tris), 150 mM NaCl, 2 mM CaCl2; pH 7.4) containing human E- or P-selectin-IgG chimera at concentrations of 2.5 μg/ml or 10 μg/ml, respectively. After removal of the coating solution non specific binding sites are blocked for an additional hour with 1% BSA in coating buffer at room temperature. After washing with assay buffer (“Roswell Park Memorial Institute 1640” (RPMI 1640)+10 mM HEPES) the dish is fitted into a parallel plate laminar flow chamber (sold from Glycotech, Rockville, Md.) and mounted on an inverted phase-contrast microscope (sold from Olympus, Hamburg, Germany) equipped with a CCD camera (JVC) that is connected to a PC. Employing a peristaltic pump (sold from Ismatec, Wertheim-Mondfeld, Germany) the re-circulating system is equilibrated with assay buffer containing 125 μM compound or vehicle control (DMSO). Cells (1 million/ml) are added to the chamber and allowed to distribute for 2 minutes at a high flow rate. The flow rate is then decreased resulting in a calculated flow shear of 1 dyne/cm^2. Video sequences of 10 low power fields are digitally recorded after 5 minutes continuous flow. The percentage of inhibition is calculated from the mean number of cells per field that attached to the coated dish surface in the presence versus absence of compound […].

Test [2] has as its target T2, human P-Selectin-IgG-chimera (Homo sapiens, UniProt P16109). Put plainly: Flow chamber assay, cell adhesion and rolling under flow conditions, P-selectin. Format: cell-based. To be noted: 125 μM compound; HL-60 cells; flow shear 1 dyne/cm^2; after 5 minutes continuous flow. The procedure:
as §1, §2, §3, §4

For test [3], the target named is T1, human E-Selectin-IgG-chimera. Nature of the test: Sialyl Lewis x Tyrosine Sulfate Assay (sLex TSA), E-selectin. The settings on record: inhibition of binding of sLex-tyrosine sulfate polyacrylamide ligand complex. The protocol: (§5) Compounds of the present invention are assayed on a molecular level for their ability to inhibit the binding of P-, L-, or E-selectin chimeric molecules to sLe^x and tyrosinesulfate residues linked to a polymeric matrix as a PSGL-1 substitute. Selected IC50-values are determined.
Microtiter plates are coated overnight in carbonate buffer pH9.6 with goat anti human Fc mAB (10 μg/ml). After washing in assay buffer (25 mM 4-(2-hydroxyethyl)-1-piperazineethanesulfonic acid (HEPES), 150 mM NaCl, 1 mM CaCl2 pH7.4) and blocking (3% bovine serum albumin (BSA) in assay buffer) plates are incubated for 2 h at 37° C. with human P-Selectin-IgG-chimera (0.61 nM respectively 150 ng/mL) or human L-Selectin-IgG-chimera (0.61 nM respectively 89 ng/mL) or human E-Selectin-IgG-chimera (0.61 nM respectively 131 ng/mL). 5 μl of sLe^x-tyrosine sulfate polyacrylamide (1 mg/ml) carrying 15% sLe^x, 10% Tyrosine-sulfate and 5% biotin is complexed with […] Streptavidin-Peroxidase solution (1 mg/ml) and 25 μl assay buffer without CaCl2. For use in the assay, the ligand complex is diluted 1:10000 in assay buffer and further diluted 1:1 with varying amounts of compounds in assay buffer incl. 2% DMSO. […] Bound sLe^x-Tyrosine sulfate ligand complex is determined by measuring optical density at 450 nm vs. 620 nm in a Fusion alpha-FP reader (sold from Packard Bioscience, Dreieich, Germany).

Test [4] concerns the target T2, human P-Selectin-IgG-chimera. Put plainly: Sialyl Lewis x Tyrosine Sulfate Assay (sLex TSA), P-selectin. The settings on record: inhibition of binding of sLex-tyrosine sulfate polyacrylamide ligand complex. The procedure: as §5
(§6) Microtiter plates are coated overnight in carbonate buffer pH9.6 with goat anti human Fc mAB (10 μg/ml). After washing in assay buffer (25 mM 4-(2-hydroxyethyl)-1-piperazineethanesulfonic acid (HEPES), 150 mM NaCl, 1 mM CaCl2 pH7.4) and blocking (3% bovine serum albumin (BSA) in assay buffer) plates are incubated for 2 h at 37° C. with human P-Selectin-IgG-chimera (0.61 nM respectively 150 ng/mL) or human L-Selectin-IgG-chimera (0.61 nM respectively 89 ng/mL) or human E-Selectin-IgG-chimera (0.61 nM respectively 131 ng/mL). 5 μl of sLe^x-tyrosine sulfate polyacrylamide (1 mg/ml) carrying 15% sLe^x, 10% Tyrosine-sulfate and 5% biotin is complexed with […] Streptavidin-Peroxidase solution (1 mg/ml) and 25 μl assay buffer without CaCl2. For use in the assay, the ligand complex is diluted 1:10000 in assay buffer and further diluted 1:1 with varying amounts of compounds in assay buffer incl. 2% DMSO. This mixture is added to the wells precoated with E- or P-selectin. After incubation for 2 h at 37° C., wells are washed for six times with in assay buffer incl. 0.005% Polyoxyethylenesorbitan monolaurate (TWEEN 20), developed for 10-15 min with 20 μl 3,3′,5,5′-tetramethylbenzidine (TMB)/H2O2 substrate solution and stopped with 20 μl 1M H2SO4. Bound sLe^x-Tyrosine sulfate ligand complex is determined by measuring optical density at 450 nm vs. 620 nm in a Fusion alpha-FP reader (sold from Packard Bioscience, Dreieich, Germany).

Test [5] deals with human L-Selectin-IgG-chimera (Homo sapiens, UniProt P14151). Put plainly: Sialyl Lewis x Tyrosine Sulfate Assay (sLex TSA), L-selectin. The settings on record: inhibition of binding of sLex-tyrosine sulfate polyacrylamide ligand complex. The protocol: as §5, §6
Chain of human L-Selectin-IgG-chimera (P14151 with tags, fused parts or gaps limits assumed): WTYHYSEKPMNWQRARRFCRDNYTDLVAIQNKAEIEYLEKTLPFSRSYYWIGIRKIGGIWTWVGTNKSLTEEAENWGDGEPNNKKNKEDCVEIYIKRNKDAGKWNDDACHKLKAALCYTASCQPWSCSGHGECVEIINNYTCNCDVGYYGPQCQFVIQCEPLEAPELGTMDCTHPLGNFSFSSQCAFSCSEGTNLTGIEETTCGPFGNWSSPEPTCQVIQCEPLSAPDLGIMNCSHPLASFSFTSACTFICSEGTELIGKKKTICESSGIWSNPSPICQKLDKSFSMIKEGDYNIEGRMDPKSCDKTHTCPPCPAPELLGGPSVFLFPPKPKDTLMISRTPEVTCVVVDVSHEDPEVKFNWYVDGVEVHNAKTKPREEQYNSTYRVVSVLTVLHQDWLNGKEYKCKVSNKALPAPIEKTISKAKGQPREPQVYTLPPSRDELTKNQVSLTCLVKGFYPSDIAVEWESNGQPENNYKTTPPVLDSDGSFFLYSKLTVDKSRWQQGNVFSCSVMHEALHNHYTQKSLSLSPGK

T2 sequence (P16109 with tags, fused parts or gaps limits assumed): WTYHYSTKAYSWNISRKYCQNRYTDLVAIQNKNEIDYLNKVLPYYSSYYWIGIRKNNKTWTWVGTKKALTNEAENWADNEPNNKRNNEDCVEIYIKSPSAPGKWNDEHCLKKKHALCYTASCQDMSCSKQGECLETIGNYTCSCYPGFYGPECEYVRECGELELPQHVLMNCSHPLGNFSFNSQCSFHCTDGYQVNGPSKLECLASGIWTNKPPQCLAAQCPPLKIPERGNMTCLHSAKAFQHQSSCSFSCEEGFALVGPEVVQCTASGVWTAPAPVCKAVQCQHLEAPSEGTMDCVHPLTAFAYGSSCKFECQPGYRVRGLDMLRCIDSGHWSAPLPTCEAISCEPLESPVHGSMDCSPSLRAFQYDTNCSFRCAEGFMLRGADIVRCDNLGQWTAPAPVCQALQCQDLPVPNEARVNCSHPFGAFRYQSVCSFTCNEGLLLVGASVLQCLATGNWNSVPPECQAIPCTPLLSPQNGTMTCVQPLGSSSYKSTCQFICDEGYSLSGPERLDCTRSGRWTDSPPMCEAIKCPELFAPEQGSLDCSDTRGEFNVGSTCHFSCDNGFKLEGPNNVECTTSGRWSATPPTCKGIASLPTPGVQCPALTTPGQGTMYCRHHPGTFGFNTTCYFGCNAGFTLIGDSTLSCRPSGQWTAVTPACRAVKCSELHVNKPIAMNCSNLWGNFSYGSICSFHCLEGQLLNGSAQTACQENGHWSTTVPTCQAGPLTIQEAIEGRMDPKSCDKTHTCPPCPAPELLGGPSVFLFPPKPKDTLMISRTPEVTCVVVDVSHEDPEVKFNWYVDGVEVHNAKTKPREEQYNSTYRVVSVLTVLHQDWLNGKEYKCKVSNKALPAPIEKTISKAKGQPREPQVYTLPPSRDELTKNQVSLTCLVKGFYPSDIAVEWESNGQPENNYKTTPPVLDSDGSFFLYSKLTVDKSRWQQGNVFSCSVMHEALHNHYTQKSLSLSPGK
T1 sequence (P16581 with tags, fused parts or gaps limits assumed): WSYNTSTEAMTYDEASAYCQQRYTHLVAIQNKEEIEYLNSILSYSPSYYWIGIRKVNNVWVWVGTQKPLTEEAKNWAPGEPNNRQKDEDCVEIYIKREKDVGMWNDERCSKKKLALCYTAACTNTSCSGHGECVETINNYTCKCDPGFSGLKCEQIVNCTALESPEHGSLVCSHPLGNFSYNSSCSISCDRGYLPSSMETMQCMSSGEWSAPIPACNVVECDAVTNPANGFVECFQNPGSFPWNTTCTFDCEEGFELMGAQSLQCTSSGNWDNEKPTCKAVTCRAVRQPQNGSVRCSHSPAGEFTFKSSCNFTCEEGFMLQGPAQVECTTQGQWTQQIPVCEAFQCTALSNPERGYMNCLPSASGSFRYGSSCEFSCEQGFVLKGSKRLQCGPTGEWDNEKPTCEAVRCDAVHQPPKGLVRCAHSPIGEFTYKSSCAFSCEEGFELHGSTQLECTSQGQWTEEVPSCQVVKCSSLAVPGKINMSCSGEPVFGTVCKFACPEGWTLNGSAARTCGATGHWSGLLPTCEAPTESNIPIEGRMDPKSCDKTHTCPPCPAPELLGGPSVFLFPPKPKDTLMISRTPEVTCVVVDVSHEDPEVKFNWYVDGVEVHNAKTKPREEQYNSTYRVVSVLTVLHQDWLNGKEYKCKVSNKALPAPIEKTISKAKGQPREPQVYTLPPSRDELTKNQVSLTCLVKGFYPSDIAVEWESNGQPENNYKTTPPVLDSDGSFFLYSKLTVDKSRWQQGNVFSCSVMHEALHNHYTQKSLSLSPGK

On to `O=C(O)Cc1ccc(-c2ccccc2NC(=O)Cc2cc(O)c(O)cc2[N+](=O)[O-])s1` [Compound 110, (5-{2-[2-(4,5-Dihydroxy-2-nitro-phenyl)-acetylamino]-phenyl}-thiophen-2-yl)-acetic acid], for which the “E-Selectin normalized ratio of %-inhibition of compound divided by %-inhibition of bimosiamose” value in test [1] is 1.00 Ratio. In addition, in test [2], the “P-Selectin normalized ratio of %-inhibition of compound divided by %-inhibition of bimosiamose” value amounted to 1.26 Ratio.

For `Cc1oc(-c2ccc(NC(=O)c3cccc(-c4cc(O)c(O)cc4[N+](=O)[O-])c3)cc2)cc1C(=O)O` [Compound 113, 2-Methyl-5-{4-[(2′-nitro-4′,5′-dihydroxy-biphenyl-3-carbonyl)-amino]-phenyl}-furan-3-carboxylic acid], the “E-Selectin normalized ratio of %-inhibition of compound divided by %-inhibition of bimosiamose” value in test [1] was determined as 1.37 Ratio. Moreover, the “P-Selectin normalized ratio of %-inhibition of compound divided by %-inhibition of bimosiamose” value in test [2] was determined as 1.30 Ratio.

As to `O=C(O)Cc1ccc(-c2ccccc2NC(=O)c2cccc(-c3cc([N+](=O)[O-])cc(O)c3O)c2)s1` [Compound 116, (5-{2-[(2′,3′-Dihydroxy-5′-nitro-biphenyl-3-carbonyl)-amino]-phenyl}-thiophen-2-yl)-acetic acid], the IC50 was 308 µM in test [3], 5.2 µM in test [4] and 8.7 µM in test [5]. For the same compound, the “E-Selectin normalized ratio of %-inhibition of compound divided by %-inhibition of bimosiamose” value in test [1] was 1.23 Ratio. The “P-Selectin normalized ratio of %-inhibition of compound divided by %-inhibition of bimosiamose” value in test [2] is reported as 1.32 Ratio.

On to `O=C(Nc1ccccc1)c1cccc(-c2cc(O)c(O)cc2[N+](=O)[O-])c1` [Compound 117, 4′,5′-Dihydroxy-2′-nitro-biphenyl-3-carboxylic acid phenylamide], for which the “E-Selectin normalized ratio of %-inhibition of compound divided by %-inhibition of bimosiamose” value in test [1] was “n.s”. Also, the “P-Selectin normalized ratio of %-inhibition of compound divided by %-inhibition of bimosiamose” value in test [2] is recorded as 0.83 Ratio.

`O=C(O)Cc1ccc(-c2ccccc2NC(=O)c2cccc(-c3cc(O)c(O)cc3[N+](=O)[O-])c2)s1` [Compound 118, (5-{2-[(4′,5′-Dihydroxy-2′-nitro-biphenyl-3-carbonyl)-amino]-phenyl}-thiophen-2-yl)-acetic acid]: the half-inhibitory concentration (IC50) in test [4] came to 19.2 µM; in test [5], 39.2 µM. In addition, in test [1], the “E-Selectin normalized ratio of %-inhibition of compound divided by %-inhibition of bimosiamose” value came to 0.84 Ratio. In test [2], the “P-Selectin normalized ratio of %-inhibition of compound divided by %-inhibition of bimosiamose” value is recorded as 1.19 Ratio.

On to `O=C(Nc1ccccc1-c1ccc(C(=O)O)s1)c1cccc(-c2cc(O)c(O)cc2[N+](=O)[O-])c1` [Compound 119, 5-{2-[(4′,5′-Dihydroxy-2′-nitro-biphenyl-3-carbonyl)-amino]-phenyl}-thiophene-2-carboxylic acid], for which the IC50 in test [3] turned out to be 272 µM; in test [4] it was 11 µM; in test [5], 17.1 µM. Moreover, the “E-Selectin normalized ratio of %-inhibition of compound divided by %-inhibition of bimosiamose” value in test [1] is 0.86 Ratio. The “P-Selectin normalized ratio of %-inhibition of compound divided by %-inhibition of bimosiamose” value in test [2] stood at 1.67 Ratio.

For `O=C(Nc1ccccc1-c1ccc(C(=O)O)s1)c1cccc(-c2cc([N+](=O)[O-])cc(O)c2O)c1` [Compound 120, 5-{2-[(2′-3′-Dihydroxy-5′-nitro-biphenyl-3-carbonyl)-amino]-phenyl}-thiophene-2-carboxylic acid], the results for the IC50 in test [4] and in test [5] were 4.6 µM and 6.6 µM, respectively. For the same compound, the “E-Selectin normalized ratio of %-inhibition of compound divided by %-inhibition of bimosiamose” value in test [1] worked out at 1.01 Ratio. The “P-Selectin normalized ratio of %-inhibition of compound divided by %-inhibition of bimosiamose” value in test [2] is 1.72 Ratio.

Take `O=C(O)Cc1ccc(-c2ccccc2NC(=O)Cc2cc(O)c(O)c([N+](=O)[O-])c2)s1` [Compound 121, (5-{2-[2-(3,4-Dihydroxy-5-nitro-phenyl)-acetylamino]-phenyl}-thiophen-2-yl)-acetic acid]: the “E-Selectin normalized ratio of %-inhibition of compound divided by %-inhibition of bimosiamose” value in test [1] is 0.98 Ratio. In test [2], the “P-Selectin normalized ratio of %-inhibition of compound divided by %-inhibition of bimosiamose” value was 0.89 Ratio.

A word on the IC50: it is the concentration at which inhibition is half-maximal. A lower IC50 goes with greater potency.
